{"source": "patent US6479231B1", "about": "“Fluorescence-based assay for the interaction of small molecules with the human renal organic anion transporter 1 (hOAT1)” (Gilead Sciences, Inc., priority 1999, dated 2002)", "key": {"[1]": {"biological_target": "T1, hOAT1 (Homo sapiens, UniProt Q4U2R8)", "T1 sequence (Q4U2R8 1-550 isoform Q4U2R8-2)": "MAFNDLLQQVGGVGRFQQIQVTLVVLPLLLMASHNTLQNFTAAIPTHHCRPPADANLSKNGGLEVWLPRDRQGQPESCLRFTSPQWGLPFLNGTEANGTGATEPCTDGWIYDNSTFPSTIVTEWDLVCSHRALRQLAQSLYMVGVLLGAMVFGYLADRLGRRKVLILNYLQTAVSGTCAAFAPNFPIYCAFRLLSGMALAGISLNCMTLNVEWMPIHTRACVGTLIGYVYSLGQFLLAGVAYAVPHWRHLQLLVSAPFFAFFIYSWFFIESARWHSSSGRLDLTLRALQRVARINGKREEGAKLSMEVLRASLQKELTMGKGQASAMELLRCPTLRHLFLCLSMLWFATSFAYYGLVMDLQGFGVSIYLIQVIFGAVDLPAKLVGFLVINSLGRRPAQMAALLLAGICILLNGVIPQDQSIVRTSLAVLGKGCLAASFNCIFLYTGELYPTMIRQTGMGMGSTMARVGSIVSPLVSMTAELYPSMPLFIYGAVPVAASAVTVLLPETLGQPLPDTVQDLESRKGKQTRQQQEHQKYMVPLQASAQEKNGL", "assay": "Fluorescent transport assay: accumulation of fluorescent organic anions in CHO^hOAT vs CHO^pIRES cells", "settings": "10 μM fluorescent anion, 10 min, room temperature"}, "[2]": {"biological_target": "T1, hOAT1", "settings": "for Vmax of hOAT1-specific transport / Km: room temperature; for Km: read-out: Km of hOAT1-specific transport", "method": "First, a time-course of hOAT1-specific uptake of 6-CFL at various concentrations ranging from 0.31 to 20 μM was determined.\nKinetics of 6-CFL transport mediated by hOAT1. (a) Time course of hOAT1-specific uptake of 6-CFL. CHO^pIRES and CHO^hOAT cells in 96-well plates were incubated at room temperature with 6-CFL at concentrations ranging from 0.31 to 20 μM. At specific time points, the uptake was terminated by washing the cells with ice-cold PBS. After cell lysis, the intracellular fluorescence was determined and the net hOAT1-specific uptake was calculated after the subtraction of non-specific background uptake into CHO^pIRES cells determined under the identical conditions. […] (b) Saturation curve of the hOAT1-specific uptake of 6-CFL at 4-min time points. Km and Vmax values were estimated from the double-reciprocal plot (inset)."}, "[3]": {"biological_target": "T1, hOAT1", "assay": "Fluorescence-based inhibition assay: inhibition of 6-CFL uptake into CHO^hOAT cells", "assay_type": "cell-based", "parameters": "expressed in transfected cells; vector pIRESneo"}, "[4]": {"biological_target": "T1, hOAT1", "assay": "Transport kinetics with the radioactive substrates in CHO^hOAT cells", "assay_type": "cell-based", "parameters": "expressed in transfected cells; vector pIRESneo", "settings": "radiolabeled substrates, 3 min at 37° C, mean ± standard error, three to five experiments", "procedure": "The assays were carried out in 12-well plates with nearly confluent cells seeded 48 hours prior to each experiment. Immediately before the experiment, the cells were washed with PBS pre-warmed to 37° C. Pre-warmed Waymouth buffer ([…]) containing radiolabeled substrate at various concentrations was added to the cells and incubated for 3 min at 37° C. At the end of incubation, the cells were washed 3-times with ice-cold PBS (2 ml/well) and lysed directly on the plate in the presence of 0.4% Triton X-100 (0.5 ml/well) for at least 20 min. Subsequently, the wells were washed with an additional 0.5 ml of the detergent, the lysate and wash were combined, and radioactivity in each sample was determined after adding 6 ml of scintillation fluid (Beckman Instruments, Fullerton, Calif.). Km values were estimated by the linear regression from double reciprocal plots using Enzyme Kinetics software (ChemSW, Fairfield, Calif.)."}, "[5]": {"settings": "4-min endpoints, double reciprocal plot"}}, "note": "Read-outs that look alike come from different tables or passages of the source."}
{"smiles": "O=C(O)c1ccc2c(c1)C(=O)OC21c2ccc(O)cc2Oc2cc(O)ccc21", "note": "[5-CFL, 5-carboxyfluorescein]", "values": [{"measurement": "hOAT1-mediated transport / accumulation (in words)", "setting": "[1]; CHO^hOAT and CHO^pIRES cells", "result": "accumulated at very low levels both in CHO^hOAT and CHO^pIRES cells"}]}
{"smiles": "O=C(O)c1ccc2c(c1)C1(OC2=O)c2ccc(O)cc2Oc2cc(O)ccc21", "note": "[6-CFL, 6-carboxyfluorescein]", "values": [{"measurement": "accumulation in CHO^hOAT cells relative to control CHO^pIRES cells", "setting": "[1]", "result": "approximately 15 fold"}, {"measurement": "transport efficiency (Vmax/Km ratio)", "setting": "[2]", "result": "comparable to that of PAH"}, {"measurement": "Vmax of hOAT1-specific transport", "setting": "[2]; 2-min endpoints", "result": 19.7, "unit": "pmol/10^6 cells·min"}, {"measurement": "Vmax of hOAT1-specific transport", "setting": "[2]; [5]", "result": 17.8, "unit": "pmol/10^6 cells·min"}, {"measurement": "Km", "setting": "[2]; 2-min endpoints", "result": 3.95, "unit": "µM"}, {"measurement": "Km", "setting": "[2]; [5]", "result": 3.93, "unit": "µM"}]}
{"smiles": "Nc1ncnc2c1ncn2CCOCP(=O)(O)O", "note": "[Adefovir, 9-(2-phosphonylmethoxyethyl)adenine]", "values": [{"measurement": "inhibition of 6-CFL transport (in words)", "setting": "[3]", "result": "inhibited the transport of 6-CFL"}, {"measurement": "Km", "setting": "[4]", "result": "23.8 ± 4.2", "unit": "µM"}]}
{"smiles": "CC1=C(C(=O)O)N2C(=O)[C@@H](NC(=O)[C@H](N)C3=CCC=CC3)[C@H]2SC1", "note": "[Cephradine]", "values": [{"measurement": "inhibition of 6-CFL transport (in words)", "setting": "[3]", "result": "inhibited the transport of 6-CFL"}]}
{"smiles": "Nc1ccn(C[C@@H](CO)OCP(=O)(O)O)c(=O)n1", "note": "[Cidofovir, (S)-1-(3-hydroxy-2-phosphonylmethoxypropyl)cytosine]", "values": [{"measurement": "inhibition of 6-CFL transport (in words)", "setting": "[3]", "result": "inhibited the transport of 6-CFL"}]}
{"smiles": "Nc1ccn(C[C@H]2COP(=O)(O)CO2)c(=O)n1", "note": "[Cyclic prodrug of cidofovir, [((S)-1-2-hydroxy-2-oxo-1,4,2-dioxaphosphorinan-5-yl)methyl]cytosine]", "values": [{"measurement": "inhibition of 6-CFL transport (in words)", "setting": "[3]", "result": "inhibited the transport of 6-CFL"}, {"measurement": "Km", "setting": "[4]", "result": "309 ± 106", "unit": "µM"}]}
{"smiles": "CC(C(=O)O)c1cccc(C(=O)c2ccccc2)c1", "note": "(centres unmarked) [Ketoprofen]", "values": [{"measurement": "inhibition of 6-CFL transport (in words)", "setting": "[3]", "result": "inhibited the transport of 6-CFL"}]}
